This assay concerns CD2F1 mice, L1210 leukemia ip, survival T/C. The assay is described as follows: NCI In Vivo Anticancer Drug Screen. Data for tumor model L1210 Leukemia (intraperitoneal) in CD2F1 (CDF1) mice. To be noted: higher = longer survival. The method in brief: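 In this screen, transplantable tumors were grown in mice given either the compound or its vehicle. Results were expressed as the treated measurement relative to the control measurement.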

[1] abbreviates: endpoint: mean survival time, dose: 100.0 mg/kg/injection, schedule: Q04DX003 (ip), vehicle: saline with Tween-80.
[2] abbreviates: endpoint: mean survival time, dose: 200.0 mg/kg/injection, schedule: Q04DX003 (ip), vehicle: saline with Tween-80.
[3] abbreviates: endpoint: mean survival time, dose: 400.0 mg/kg/injection, schedule: Q04DX003 (ip), vehicle: saline with Tween-80.

Toxic doses and inconclusive results are not listed.

The values that follow come from PubChem BioAssay AID256 (DTP/NCI, 2004).

Turning to `CCN(CC)CCNc1ccc(CO)c2sc3ccccc3c(=O)c12`, the T/C is, setting by setting: (endpoint: mean survival time, dose: 4.0 mg/kg/injection, schedule: Q03HX008 (ip), vehicle: saline) 101 % of control; (endpoint: mean survival time, dose: 4.0 mg/kg/injection, schedule: Q03HX016 (ip), vehicle: saline) 104 % of control; (endpoint: mean survival time, dose: 4.0 mg/kg/injection, schedule: Q03HX024 (ip), vehicle: saline) 110 % of control; (endpoint: mean survival time, dose: 8.0 mg/kg/injection, schedule: Q03HX008 (ip), vehicle: saline) 112 % of control; (endpoint: mean survival time, dose: 8.0 mg/kg/injection, schedule: Q03HX016 (ip), vehicle: saline) 108 % of control; (endpoint: mean survival time, dose: 8.0 mg/kg/injection, schedule: Q03HX024 (ip), vehicle: saline) 117 % of control. The T/C is, setting by setting: (endpoint: mean survival time, dose: 12.5 mg/kg/injection, schedule: Q01DX009 (ip), vehicle: Klucel (hydroxypropylcellulose) (HPC)) 106 % of control; (endpoint: mean survival time, dose: 16.0 mg/kg/injection, schedule: Q03HX008 (ip), vehicle: saline) 105 % of control; (endpoint: mean survival time, dose: 16.0 mg/kg/injection, schedule: Q03HX016 (ip), vehicle: saline) 110 % of control; (endpoint: mean survival time, dose: 16.0 mg/kg/injection, schedule: Q03HX024 (ip), vehicle: saline) 151 % of control; (endpoint: mean survival time, dose: 25.0 mg/kg/injection, schedule: Q01DX009 (ip), vehicle: Klucel (hydroxypropylcellulose) (HPC)) 102 % of control; (endpoint: mean survival time, dose: 32.0 mg/kg/injection, schedule: Q01DX001 (ip), vehicle: saline) 107 % of control. In addition, the T/C reads like this: (endpoint: mean survival time, dose: 32.0 mg/kg/injection, schedule: Q01DX001 (sc), vehicle: saline) 116 % of control; (endpoint: mean survival time, dose: 32.0 mg/kg/injection, schedule: Q03HX016 (ip), vehicle: saline) 117 % of control; (endpoint: mean survival time, dose: 32.0 mg/kg/injection, schedule: Q03HX024 (ip), vehicle: saline) 184 % of control; (endpoint: mean survival time, dose: 32.0 mg/kg/injection, schedule: Q04DX003 (ip), vehicle: saline) 116 % of control; (endpoint: mean survival time, dose: 32.0 mg/kg/injection, schedule: Q08DX002 (ip), vehicle: saline) 114 % of control; (endpoint: mean survival time, dose: 50.0 mg/kg/injection, schedule: Q01DX009 (ip), vehicle: Klucel (hydroxypropylcellulose) (HPC)) 120 % of control. The T/C is 108 % of control (endpoint: mean survival time, dose: 64.0 mg/kg/injection, schedule: Q01DX001 (ip), vehicle: saline); 111 % of control (endpoint: mean survival time, dose: 64.0 mg/kg/injection, schedule: Q01DX001 (sc), vehicle: saline); 174 % of control (endpoint: mean survival time, dose: 64.0 mg/kg/injection, schedule: Q01DX009 (ip), vehicle: saline); 121 % of control (endpoint: mean survival time, dose: 64.0 mg/kg/injection, schedule: Q01DX009 (oral), vehicle: saline); 156 % of control (endpoint: mean survival time, dose: 64.0 mg/kg/injection, schedule: Q01DX009 (sc), vehicle: saline); 150 % of control (endpoint: mean survival time, dose: 64.0 mg/kg/injection, schedule: Q03HX008 (ip), vehicle: saline). Moreover, the T/C is, setting by setting: (endpoint: mean survival time, dose: 64.0 mg/kg/injection, schedule: Q03HX016 (ip), vehicle: saline) 151 % of control; (endpoint: mean survival time, dose: 64.0 mg/kg/injection, schedule: Q03HX024 (ip), vehicle: saline) 94 % of control; (endpoint: mean survival time, dose: 64.0 mg/kg/injection, schedule: Q08DX002 (ip), vehicle: saline) 113 % of control; (endpoint: mean survival time, dose: 120.0 mg/kg/injection, schedule: Q01DX001 (ip), vehicle: acetone) 113 % of control; (endpoint: mean survival time, dose: 120.0 mg/kg/injection, schedule: Q01DX009 (ip), vehicle: acetone) 118 % of control; (endpoint: mean survival time, dose: 128.0 mg/kg/injection, schedule: Q01DX001 (ip), vehicle: saline) 110 % of control. Further, the T/C (endpoint: mean survival time, dose: 128.0 mg/kg/injection, schedule: Q01DX001 (sc), vehicle: saline) was 115 % of control; the T/C (endpoint: mean survival time, dose: 128.0 mg/kg/injection, schedule: Q01DX009 (ip), vehicle: saline) is 101 % of control; the T/C (endpoint: mean survival time, dose: 128.0 mg/kg/injection, schedule: Q01DX009 (sc), vehicle: saline) was 111 % of control; the T/C (endpoint: mean survival time, dose: 128.0 mg/kg/injection, schedule: Q08DX002 (ip), vehicle: saline) is 111 % of control; the T/C (endpoint: mean survival time, dose: 180.0 mg/kg/injection, schedule: Q01DX001 (ip), vehicle: acetone) was 106 % of control; the T/C (endpoint: mean survival time, dose: 256.0 mg/kg/injection, schedule: Q01DX001 (ip), vehicle: saline) is 122 % of control. The T/C (endpoint: mean survival time, dose: 256.0 mg/kg/injection, schedule: Q01DX001 (oral), vehicle: saline) was 110 % of control; the T/C (endpoint: mean survival time, dose: 256.0 mg/kg/injection, schedule: Q01DX001 (sc), vehicle: saline) was 115 % of control; the T/C (endpoint: mean survival time, dose: 256.0 mg/kg/injection, schedule: Q01DX009 (oral), vehicle: saline) was 124 % of control; the T/C (endpoint: mean survival time, dose: 400.0 mg/kg/injection, schedule: Q01DX001 (ip), vehicle: acetone) is 120 % of control; the T/C (endpoint: mean survival time, dose: 512.0 mg/kg/injection, schedule: Q01DX001 (oral), vehicle: saline) was 117 % of control; the T/C (endpoint: median survival time, dose: 10.0 mg/kg/injection, schedule: Q01DX009 (ip), vehicle: water) was 102 % of control. For the same compound, the T/C (endpoint: median survival time, dose: 40.0 mg/kg/injection, schedule: Q01DX009 (ip), vehicle: water) is 150 % of control and the T/C (endpoint: median survival time, dose: 160.0 mg/kg/injection, schedule: Q01DX009 (ip), vehicle: water) was 103 % of control.
Take `Oc1ccc(C/C=C/c2ccccc2)cc1`: the T/C reads like this: under setting [1], 102 % of control; under setting [2], 100 % of control; under setting [3], 102 % of control.
Turning to `CC(=O)/C(=C\c1ccc(/C=C(\C(C)=O)C(=O)CCN(C)C)cc1)C(=O)CCN(C)C`, the T/C is, setting by setting: (endpoint: median survival time, dose: 25.0 mg/kg/injection, schedule: Q01DX005 (ip), vehicle: saline with Tween-80) 102 % of control; (endpoint: median survival time, dose: 50.0 mg/kg/injection, schedule: Q01DX005 (ip), vehicle: saline with Tween-80) 102 % of control; (endpoint: median survival time, dose: 100.0 mg/kg/injection, schedule: Q01DX005 (ip), vehicle: saline with Tween-80) 101 % of control; (endpoint: median survival time, dose: 200.0 mg/kg/injection, schedule: Q01DX005 (ip), vehicle: saline with Tween-80) 98 % of control; (endpoint: median survival time, dose: 400.0 mg/kg/injection, schedule: Q01DX005 (ip), vehicle: saline with Tween-80) 102 % of control.
Regarding `COC(=O)c1cc(-c2ccccc2)n(-c2ccccc2)c1-c1ccccc1`, the T/C (endpoint: mean survival time, dose: 100.0 mg/kg/injection, schedule: Q01DX001 (ip), vehicle: Klucel (hydroxypropylcellulose) (HPC)) was 94 % of control; the T/C (endpoint: mean survival time, dose: 100.0 mg/kg/injection, schedule: Q04DX002 (ip), vehicle: saline with Tween-80) was 90 % of control; the T/C (endpoint: mean survival time, dose: 200.0 mg/kg/injection, schedule: Q01DX001 (ip), vehicle: Klucel (hydroxypropylcellulose) (HPC)) is 89 % of control; the T/C (endpoint: mean survival time, dose: 200.0 mg/kg/injection, schedule: Q04DX002 (ip), vehicle: saline with Tween-80) was 87 % of control; the T/C (endpoint: mean survival time, dose: 400.0 mg/kg/injection, schedule: Q01DX001 (ip), vehicle: Klucel (hydroxypropylcellulose) (HPC)) is 89 % of control; the T/C (endpoint: mean survival time, dose: 400.0 mg/kg/injection, schedule: Q04DX002 (ip), vehicle: saline with Tween-80) is 94 % of control.
On to `COc1cc2c(cc1OC)C(CCN1C(=O)CCC1=O)=NCC2`, for which the T/C (endpoint: mean survival time, dose: 50.0 mg/kg/injection, schedule: Q01DX009 (ip), vehicle: saline sonified) was 96 % of control; the T/C (endpoint: mean survival time, dose: 100.0 mg/kg/injection, schedule: Q01DX009 (ip), vehicle: saline sonified) is 102 % of control; the T/C (endpoint: mean survival time, dose: 100.0 mg/kg/injection, schedule: Q04DX003 (ip), vehicle: saline sonified) is 98 % of control; the T/C (endpoint: mean survival time, dose: 200.0 mg/kg/injection, schedule: Q01DX009 (ip), vehicle: saline sonified) is 100 % of control; the T/C (endpoint: mean survival time, dose: 200.0 mg/kg/injection, schedule: Q04DX003 (ip), vehicle: saline sonified) was 103 % of control.
For the compound `O=C1CNC(c2ccccc2)C(c2ccccc2)N1` (configuration not stated), the T/C by setting is: under setting [1], 100 % of control; under setting [2], 102 % of control; under setting [3], 101 % of control.
For `C/C=C1/CN2[C@H]3C[C@@]45c6ccccc6N[C@@H]4[C@@H]2C[C@H]1[C@@]3(C(=O)OC)[C@H]5O`, the T/C is 91 % of control (endpoint: mean survival time, dose: 100.0 mg/kg/injection, schedule: Q01DX009 (ip), vehicle: saline with Tween-80); 95 % of control under setting [1]; 95 % of control (endpoint: mean survival time, dose: 200.0 mg/kg/injection, schedule: Q01DX009 (ip), vehicle: saline with Tween-80); 100 % of control under setting [2]; 91 % of control (endpoint: mean survival time, dose: 400.0 mg/kg/injection, schedule: Q01DX009 (ip), vehicle: saline with Tween-80); 103 % of control under setting [3].
